Several values for one entry are separate records, joined by “and”; a condition that tells them apart may be missing. Identical values can stand only once. Blank lines part the entries; values can stand above or below the compound they belong to.
Assays:
men = test: Clinical study: fatigue test, 50 maximal unilateral isokinetic leg extensions, before and after 28 days of supplementation; format: in vivo; settings: for Peak Torque: mean of first three repetitions
Procedure: The supplements were designed to be as similar as possible in volume, color, and taste, and included 5.0 g of phosphocreatine disodium salts plus 200 mg of blueberry extract in the supplements for the Phosphocreatine/Blueberry Group, 3.0 g of creatine monohydrate for the Creatine Group, and microcrystalline cellulose for the placebo group. The bulk powder mixtures were sieved through a 60-mesh sieve to ensure inform particle size and to get rid of the agglomerates. They were then blended for one hour using an Erweka V-mixer (Model AR 403, Erweka America Inc., Edison, NJ) prior to packaging. Homogeneity of mixing was visually confirmed with the coloring agents used. Blended powders were accurately weighed (mass±1%) into individual foil lined pouches using a calibrated balance (Model SX 410, Denver Instruments, Bohemia, NY) and heat sealed. Five quality control samples were randomly selected from the packaged batch throughout the packaging process to ensure even distribution of contents, verified by mass for all samples and for creatine content in non-placebo samples by HPLC analysis.
The study was implemented as a double-blind, placebo-controlled, parallel design study. The study included a familiarization visit with each of the participants, a pre-supplementation test visit, 28 days of daily supplementation, and a post-supplementation test visit. During the testing visits, the subjects performed the fatigue test of Thorstensson and Karlsson which consisted of 50 maximal, unilateral, concentric, isokinetic leg extensions of the left leg at 180°·s^−1.
After completion of the pre-supplementation test visit, the participants were randomly assigned to one of the three groups described above. The subjects were provided with 28 days of individually packaged packets of powder of their assigned supplement and were instructed to mix the contents of the packet with 8 oz of water and drink it immediately after mixing. The subjects were instructed to maintain their usual exercise and dietary habits throughout the study. Each subject completed a 3-day dietary recall form and a 7-day exercise recall form prior to the pre-supplementation testing visit and prior to the post-supplementation testing visit to determine if there were changes in total caloric and macronutrient intake as well as exercise time during the supplementation period.
Before and after the 28 day supplementation regimens, peak torque, average power and percent decline for peak torque and average power were assessed from a fatigue test consisting of 50 maximal, unilateral, isokinetic leg extensions at 180°·s^−1.
During both pre-supplementation and post-supplementation test visits, peak torque and average power were assessed during the fatigue tests. Peak torque and average power were defined as the mean values from the first three repetitions of the fatigue test. Average power was operationally defined in the as the time averaged, integrated area under the isokinetic torque curve. To calculate the average power, the voltage-time relationships were converted to the isokinetic torque curve by converting the voltage to torque in N·m based on a regression equation. Integration of the area under the torque curve was accomplished using a custom LabVIEW program (National Instrument, Austin, TX, USA) and the average power was then calculated by dividing the integrated area under the torque curve by the time for each isokinetic repetition.

[1] = system: CaCo2 cell model for intestinal barrier; test: Diffusion of extract polyphenols/flavonoids through confluent CaCo2 monolayer in side by side diffusion cells; format: in vitro ADME; settings: 10 mM alpha, beta or gamma cyclodextrin with blueberry polyphenol solution ~1 mg/ml
[2] = pre- to post-supplement, 28 days, monohydrate

Compound: CN(CC(=O)O)C(=N)N.O [Creatine Group, creatine monohydrate]
- Average Power (men; Post-Supplement (28 days)): 159.78 ± 31.20 Watts
- Peak Torque (men; Post-Supplement (28 days)): 111.97 ± 24.50
- Average Power (men; Pre-Supplement): 143.42 ± 33.84 Watts
- Peak Torque (men; Pre-Supplement): 99.95 ± 22.50
- Average Power Change (%) (men; [2]): 10.22% and 10.22 ± 13.62%
- Peak Torque Change (%) (men; [2]): 10.47% and 10.47 ± 11.03%

- effect of cyclodextrin on permeation of blueberry phenolics thru the CaCo2 membrane [1]: best effect on increasing the permeation
Compound: OC[C@H]1O[C@@H]2O[C@H]3[C@H](O)[C@@H](O)[C@@H](O[C@H]4[C@H](O)[C@@H](O)[C@@H](O[C@H]5[C@H](O)[C@@H](O)[C@@H](O[C@H]6[C@H](O)[C@@H](O)[C@@H](O[C@H]7[C@H](O)[C@@H](O)[C@@H](O[C@H]8[C@H](O)[C@@H](O)[C@@H](O[C@H]1[C@H](O)[C@H]2O)O[C@@H]8CO)O[C@@H]7CO)O[C@@H]6CO)O[C@@H]5CO)O[C@@H]4CO)O[C@@H]3CO [beta cyclodextrin]

Reference: patent publication US12543767B2, “Oral supplements containing enriched phenolic compound extracts combined with organic acid sodium salts, creatines and/or creatine salts” (Phenolics, LLC, priority 2021, dated 2026)
